In ChEMBL document CHEMBL4706515, “Discovery of new [1,2,4] Triazolo[1,5-a]Pyrimidine derivatives that Kill gastric cancer cells via the mitochondria pathway” (Eur J Med Chem, 2020):
Calls of active or inactive are those of the source. The calls are words filed in the database; no cut-off is given here.

How the values were obtained:
[1] = system: MGC-803; assay: Antiproliferative activity against human MGC-803 cells assessed as inhibition of cell growth at 10 uM measured after 72 hrs by SRB assay relative to control; assay type: functional
[2] = system: SGC-7901; assay: Antiproliferative activity against human SGC-7901 cells assessed as inhibition of cell growth at measured after 72 hrs by SRB assay; assay type: functional
[3] = system: GES1; assay: Cytotoxicity against human GES1 cells assessed as inhibition of cell growth at measured after 72 hrs by SRB assay; assay type: cell-based; conditions: ges1, 72 h
[4] = system: EJ; assay: Antiproliferative activity against human EJ cells assessed as inhibition of cell growth at measured after 72 hrs by SRB assay; assay type: functional
[5] = system: A549; assay: Antiproliferative activity against human A549 cells assessed as inhibition of cell growth at measured after 72 hrs by SRB assay; assay type: functional
[6] = system: MKN-45; assay: Antiproliferative activity against human MKN-45 cells assessed as inhibition of cell growth at measured after 72 hrs by SRB assay; assay type: functional
[7] = system: BGC-823; assay: Antiproliferative activity against human BGC-823 cells assessed as inhibition of cell growth at measured after 72 hrs by SRB assay; assay type: functional
[8] = system: HGC-27; assay: Antiproliferative activity against human HGC-27 cells assessed as inhibition of cell growth at measured after 72 hrs by SRB assay; assay type: functional
[9] = system: MGC-803; assay: Antiproliferative activity against human MGC-803 cells assessed as inhibition of cell growth at measured after 72 hrs by SRB assay; assay type: functional

SMILES | inhibition at 10 µM [1] | other results
C#CCSc1nc2nc(-c3ccccc3)cc(Nc3ccc(C(=O)/C=C/c4cccc(Br)n4)cc3)n2n1 | 56.3% | 
C#CCSc1nc2nc(C)cc(Nc3ccc(C(=O)/C=C/c4cccc(Br)n4)cc3)n2n1 | 94.4% | 
Cc1nc2nc(SCc3ccc(Cl)cc3)nn2c(Nc2ccc(C(=O)/C=C/c3cccc(Br)n3)cc2)c1C | 72.5% | 
Cc1cc(Nc2ccc(C(=O)/C=C/c3cccc(Br)n3)cc2)n2ncnc2n1 | 58.4% | 
Cc1cc(Nc2ccc(C(=O)/C=C/c3cccc(Br)n3)cc2)n2nc(SCc3ccc(F)cc3)nc2n1 | 93.3% | 
Cc1cc(Nc2ccccc2)n2nc(SCc3nc4ccccc4[nH]3)nc2n1 | 22.4% | 
Cc1cc(Nc2ccc(C(=O)/C=C/c3ccccc3)cc2)n2nc(SCc3nc4ccccc4[nH]3)nc2n1 | 94.5% | 
Cc1cc(Nc2ccc(C(=O)/C=C/c3cccc(Br)n3)cc2)n2nc(SCc3ccc(Br)cc3)nc2n1 | 96.3% | 
CCc1cc(Nc2ccc(C(=O)/C=C/c3cccc(Br)n3)cc2)n2nc(SCc3ccccc3)nc2n1 | 63% | 
Cc1cc(Nc2ccc(C(=O)/C=C/c3cccc(Br)n3)cc2)n2nc(SCc3ccc(Cl)cc3)nc2n1 | 90.2% | 
Cc1cc(Nc2ccc(N3CCN(C)CC3)cc2)n2nc(SCc3nc4ccccc4[nH]3)nc2n1 | 78.1% | 
Cc1cc(Nc2ccc(C(=O)/C=C/c3ccc(Br)cn3)cc2)n2nc(SCc3nc4ccccc4[nH]3)nc2n1 | 96.8% | GI50 [2]: 640 nM; Activity [3]: Non-Toxic; GI50 [4]: inactive; GI50 [5]: inactive; GI50 [6]: 640 nM; GI50 [7]: 640 nM; GI50 [8]: 640 nM; GI50 [9]: 640 nM
Cc1cc(Nc2ccc(C(=O)/C=C/c3cccc(Br)n3)cc2)n2nc(SCCCc3ccccc3)nc2n1 | 76.7% | 
Cc1cc(Nc2ccc(C(=O)/C=C/c3cccc(Br)n3)cc2)n2nc(SCc3ccccc3[N+](=O)[O-])nc2n1 | 92.3% | 
O=C(/C=C/c1cccc(Br)n1)c1ccc(Nc2c3c(nc4ncnn24)CCC3)cc1 | 49.9% | 
Cc1cc(Nc2ccc(C(=O)/C=C/c3cccc(Br)n3)cc2)n2nc(SCc3ccc(C(F)(F)F)cc3)nc2n1 | 96.6% | 
Cc1cc(Nc2cc(-c3ccccc3)[nH]n2)n2nc(SCc3nc4ccccc4[nH]3)nc2n1 | 78.4% | 
Cc1cc(Nc2ccc(C(=O)/C=C/c3cccc(Br)n3)cc2)n2nc(SCc3ccc([N+](=O)[O-])cc3)nc2n1 | 91.6% | 
O=C(/C=C/c1cccc(Br)n1)c1ccc(Nc2cc(-c3ccccc3)nc3nc(SCc4ccccc4)nn23)cc1 | 38.3% | 
Cc1cc(Nc2ccc(C(=O)/C=C/c3cccc(Br)n3)cc2)n2nc(SCc3ccccc3)nc2n1 | 90.2% | 
O=c1[nH]cc(F)c(=O)[nH]1 [FLUOROURACIL] |  | GI50 [2]: Active; Activity [3]: Toxic; GI50 [4]: Active; GI50 [5]: Active; GI50 [6]: Active; GI50 [7]: Active; GI50 [8]: Active; GI50 [9]: Active
